Experimental findings from patent US20240182503A1, “MACROCYCLE COMPLEMENT FACTOR B INHIBITORS” (priority 2021, published 2024) are described below.

By pIC50 is commonly meant −log10 of the IC50, conventionally taken in molar units.

pIC50: −log10 of the molar value. A value given as a limit tells only on which side of the number the result lay.

The target in the first assay is CVF-Bb complex (Homo sapiens (Human), UniProt P00751). Put plainly: biochemical. Type of assay: biochemical.
Details: not given
Here is the method: CVF-Bb complex, prepared from purified cobra venom factor, (3 nM) is incubated with a compound of the disclosure at various concentrations for 10 minutes at room temperature in PBS (pH 7.4) containing 10 mM MgCl2 and 0.05% (w/v) CHAPS. Human Complement C3 substrate is added to a final concentration of 1 μM. After 1 hour incubation at room temperature, the enzyme reaction is stopped by addition of a cocktail of concentrated pan-protease inhibitors. The product of the reaction, C3a, is quantified by means of an enzyme-linked-immunosorbent assay and/or denaturing gel electrophoresis (SDS-PAGE). IC50 values are calculated from percentage of inhibition of CVF-Bb activity as a function of test compound concentration.
`Cc1cc2c(c3cc[nH]c13)CN1CC[C@@H](C[C@H]1c1ccc(C(=O)O)cc1)OCCCCCCCO2` [Ex. 25, 4-((3^2R,3^4R)-1^7-methyl-1^1H-4,12-dioxa-1(4,5)-indola-3(1,4)-piperidinacyclododecaphane-3^2-yl)benzoic acid] showed a pIC50 of less than 5.00. The compound `CCO[C@H]1CCN2Cc3c(cc(C)c4[nH]ccc34)OCCCCCCCCCCOc3cc(C(=O)O)ccc3[C@@H]2C1` [Ex. 32, (21bS,23S)-23-ethoxy-4-methyl-7,8,9,10,11,12,13,14,15,16,21b,22,23,24,25,2 7-hexadecahydro-3H-benzo[7,8]pyrido[1′,2′:5,6][1,9,5]dioxaazacyclo-nonadecino[3,2-e]indole-19-carboxylic acid] showed a pIC50 of less than 5.00. Still for that read-out and setting: with `CCO[C@H]1CCN2Cc3c(cc(C)c4[nH]ccc34)OCCCCCCCCCOc3cc(C(=O)O)ccc3[C@@H]2C1` [Ex. 31, (20bS,22S)-22-ethoxy-4-methyl-3,7,8,9,10,11,12,13,14,15,20b,21,22,23,24,26-hexadecahydrobenzo[7,8]pyrido[1′,2′:5,6][1,9, 5]dioxaazacyclooctadecino[3,2-e]indole-18-carboxylic acid] the figure was 5.54; with `COc1cc(C)c2[nH]ccc2c1CN1CC[C@H]2CC1c1ccc(C(=O)O)cc1CCCCCCCO2` [Ex. 39, (1^2S,1^4RS)-1^1-((5-methoxy-7-methyl-1H-indol-4-yl)methyl)-10-oxa-1(2,4)-piperidina-2(1,2)-benzenacyclodecaphane-2^4-carboxylic acid], 6.60; with `CCO[C@H]1CCN(Cc2c(OC)cc(C)c3[nH]ccc23)[C@H](c2ccc(C(=O)O)cc2OCCNC(C)=O)C1` [Ex. 6, 3-(2-acetamidoethoxy)-4-((2S,4S)-4-ethoxy-1-((5-methoxy-7-methyl-1H-indol-4-yl)methyl)piperidin-2-yl)benzoic acid], 6.50.

In the case of `CCO[C@@H]1CCN(Cc2c(OC)cc(C)c3[nH]ccc23)[C@H](c2ccc(C(=O)O)cc2OC)C1` [Ex. 4, 4-((2S,4R)-4-ethoxy-1-((5-methoxy-7-methyl-1H-indol-4-yl)methyl)piperidin-2-yl)-3-methoxybenzoic acid], the pIC50 is 5.45. On the same count and under the same terms, with `COc1cc(C)c2[nH]ccc2c1CN1CC[C@@H]2C[C@@H]1c1ccc(C(=O)O)cc1OCC/C=C\CO2` [Ex. 42, (1^2R,1^4R,Z)-1^1-((5-methoxy-7-methyl-1H-indol-4-yl)methyl)-3,9-dioxa-1(2,4)-piperidina-2(1,2)-benzenacyclononaphan-6-ene-2^4-carboxylic acid] the figure was 5.97. Take `CCO[C@H]1CCN(Cc2c(OC)cc(C)c3[nH]ccc23)[C@H](c2ccc(C(=O)O)cc2OC)C1` [Ex. 3, 4-((2S,4S)-4-ethoxy-1-((5-methoxy-7-methyl-1H-indol-4-yl)methyl)piperidin-2-yl)-3-methoxybenzoic acid]: the pIC50 was 6.58.

In the case of `CCO[C@H]1CCN(Cc2c(OC)cc(C)c3[nH]ccc23)[C@H](c2ccc(C(=O)NS(=O)(=O)CC)cc2)C1` [Ex. 44, 4-((2S,4S)-4-ethoxy-1-((5-methoxy-7-methyl-1H-indol-4-yl)methyl)piperidin-2-yl)-N-(ethylsulfonyl)benzamide], the pIC50 is 6.86.

The same assay, now with this note: read-out: IC50.
Turning to `COc1cc(C)c2[nH]ccc2c1CN1CC[C@H]2C[C@H]1c1ccc(C(=O)O)cc1OCCCC/C=C\CO2` [Ex. 10, (1^2S,1^4S,Z)-1^1-((5-methoxy-7-methyl-1H-indol-4-yl)methyl)-3,11-dioxa-1(2,4)-piperidina-2(1,2)-benzenacycloundecaphan-8-ene-2^4-carboxylic acid], the pIC50 was 6.42.

As for `COc1cc(C)c2[nH]ccc2c1CN1CC[C@H]2C[C@H]1c1ccc(C(=O)O)cc1OCCCCCO2` [Ex. 8, (1^2S,1^4S)_1^1-((5-methoxy-7-methyl-1H-indol-4-yl)methyl)-3,9-dioxa-1(2,4)-piperidina-2(1,2)-benzenacyclononaphane-2^4-carboxylic acid], the pIC50 was 6.40. As to `COc1cc(C)c2[nH]ccc2c1CN1CC[C@H]2C[C@H]1c1ccc(C(=O)O)c3ccc(cc13)OC/C=C\CO2` [Ex. 75, (1^2S,1^4S,Z)-1′-((5-methoxy-7-methyl-1H-indol-4-yl)methyl)-3,8-dioxa-1(2,4)-piperidina-2(1,7)-naphthalenacyclooctaphan-5-ene-2^4-carboxylic acid], the pIC50 was 6.45. On the same count and under the same terms, with `COc1cc(C)c2[nH]ccc2c1CN1CC[C@H]2C[C@H]1c1ccc(C(=O)O)c3ccc(cc13)OCCCCCCO2` [Ex. 49, (1^2S,14S)-1^1-((5-methoxy-7-methyl-1H-indol-4-yl)methyl)-3,10-dioxa-1(2,4)-piperidina-2(1,7)-naphthalenacyclodecaphane-2^4-carboxylic acid] the figure was 6.68. Still for that read-out and setting: with `CNS(=O)(=O)c1ccc2c(c1)OCCCCCCO[C@H]1CCN(Cc3c(OC)cc(C)c4[nH]ccc34)[C@H]2C1` [Ex. 79, (1^2S,1^4S)-1^1-((5-methoxy-7-methyl-1H-indol-4-yl)methyl)-N-methyl-3,10-dioxa-1(2,4)-piperidina-2(1,2)-benzenacyclodecaphane-2^4-sulfonamide] the figure was less than 5.00; with `COc1cc(C)c2[nH]ccc2c1CN1CC[C@H]2C[C@H]1c1ccc(C(=O)NS(C)(=O)=O)cc1/C=C/CCCCCCO2` [Ex. 58, (1^2S,1^4S, E)-1^1-((5-methoxy-7-methyl-1H-indol-4-yl)methyl)-N-(methylsulfonyl)-11-oxa-1(2,4)-piperidina-2(1,2)-benzenacycloundecaphan-3-ene-2^4-carboxamide], 5.97. Still for that read-out and setting: as for `COc1cc(C)c2[nH]ccc2c1CN1CC[C@H]2C[C@H]1c1ccc(C(=O)O)cc1OCCC/C=C\CO2` [Ex. 11, (1^2S,1^4S,Z)-1′-((5-methoxy-7-methyl-1H-indol-4-yl)methyl)-3,10-dioxa-1(2,4)-piperidina-2(1,2)-benzenacyclodecaphan-7-ene-2^4-carboxylic acid], the figure is 5.92; as for `COc1cc(C)c2[nH]ccc2c1CN1CCC2CC1c1ccc(C(=O)O)c3ccc(cc13)OCCCCCCO2` (centres unmarked) [Ex. 52, (1^2R,1^4R)-1^1-((5-methoxy-7-methyl-1H-indol-4-yl)methyl)-3,10-dioxa-1(2,4)-piperidina-2(1,7)-naphthalenacyclodecaphane-2^4-carboxylic acid], less than 5.00; as for `COc1cc(C)c2[nH]ccc2c1CN1CC[C@H]2C[C@H]1c1ccc(C(=O)O)c3ccc(cc13)OCCC/C=C/CO2` [Ex. 48, (1^2S,1^4S,E)-1^1-((5-methoxy-7-methyl-1H-indol-4-yl)methyl)-3,10-dioxa-1(2,4)-piperidina-2(1,7)-naphthalenacyclodecaphan-7-ene-2^4-carboxylic acid], 7.08. Regarding `CCS(=O)(=O)NC(=O)c1ccc2c(c1)OCCCCCO[C@H]1CCN(Cc3c(OC)cc(C)c4[nH]ccc34)[C@H]2C1` [Ex. 59, (1^2S,1^4S)—N-(ethylsulfonyl)-1^1-((5-methoxy-7-methyl-1H-indol-4-yl)methyl)-3,9-dioxa-1(2,4)-piperidina-2(1,2)-benzenacyclononaphane-2^4-carboxamide], the pIC50 was 6.61. Still for that read-out and setting: as for `COc1cc(C)c2[nH]ccc2c1CN1CC[C@H]2CCCCCCCOc3cc(C(=O)O)ccc3[C@@H]1C2` [Ex. 78, (1^2S,1^4R)-1^1-((5-methoxy-7-methyl-1H-indol-4-yl)methyl)-3-oxa-1(2,4)-piperidina-2(1,2)-benzenacyclodecaphane-2^4-carboxylic acid], the figure is 6.14; as for `COc1cc(C)c2[nH]ccc2c1CN1CC[C@H]2C[C@H]1c1ccc(C(=O)NS(C)(=O)=O)cc1/C=C\CCCCCO2` [Ex. 68, (1^2S,1^4S,Z)-1^1-((5-methoxy-7-methyl-1H-indol-4-yl)methyl) —N-(methylsulfonyl)-10-oxa-1(2,4)-piperidina-2(1,2)-benzenacyclodecaphan-3-ene-24-carboxamide], 6.17; as for “(1^2S,1^4S,E)-1^1-((5-methoxy-7-methyl-1H-indol-4-yl)methyl)-3,10-dioxa-1(2,4)-piperidina-2(1,7)-naphthalenacyclodecaphan-7-ene-2^4-carboxylic acid [Ex. 53]”, less than 5.00. On to `COc1cc(C)c2[nH]ccc2c1CN1CC[C@H]2C[C@H]1c1ccc(C(=O)NS(=O)(=O)C3CCCC3)cc1OCCCCCO2` [Ex. 61, (1^2S,1^4S)—N-(cyclopentylsulfonyl)-1^1-((5-methoxy-7-methyl-1H-indol-4-yl)methyl)-3,9-dioxa-1(2,4)-piperidina-2(1,2)-benzenacyclononaphane-2^4-carboxamide], for which the pIC50 is 6.48.

As to `COc1cc(C)c2[nH]ccc2c1CN1CC[C@H]2C[C@H]1c1ccc(C(=O)NS(=O)(=O)c3ccccc3)cc1OCCCCCO2` [Ex. 70, (1^2S,1^4S)-1^1-((5-methoxy-7-methyl-1H-indol-4-yl)methyl)-N-(phenylsulfonyl)-3,9-dioxa-1(2,4)-piperidina-2(1,2)-benzenacyclononaphane-2^4-carboxamide], the pIC50 is 6.27. Same read-out and setting: with `COc1cc(C)c2[nH]ccc2c1CN1CC[C@H]2C[C@H]1c1ccc(C(=O)NS(C)(=O)=O)c3ccc(cc13)OCCCCCCO2` [Ex. 56, (1^2S,1^4S)-1^1-((5-methoxy-7-methyl-1H-indol-4-yl)methyl)-N-(methylsulfonyl)-3,10-dioxa-1(2,4)-piperidina-2(1,7)-naphthalenacyclodecaphane-2^4-carboxamide] the figure was 6.43. As to `COc1cc(C)c2[nH]ccc2c1CN1CC[C@H]2C[C@H]1c1ccc(C(=O)NS(=O)(=O)C3CCCC3)cc1OCCCCCCO2` [Ex. 62, (1^2S,1^4S)—N-(cyclopentylsulfonyl)-1^1-((5-methoxy-7-methyl-1H-indol-4-yl)methyl)-3,10-dioxa-1(2,4)-piperidina-2(1,2)-benzenacyclodecaphane-2^4-carboxamide], the pIC50 was 6.53.
